Earlier results, collected in patent US20150314047A1, “BORON COMPOSITE SURFACE COATINGS AND THEIR APPLICATION ON IMPLANTABLE DEVICES TO ACCELERATE OSSEOUS HEALING” (Rutgers, The State University of New Jersey, priority 2014, published 2015).
Like-named read-outs stand apart in the source and are kept apart here.

Legend:
axial skeleton = conditions: boron administered at several concentrations
pre-osteoblastic cells = conditions: 0.1, 1, 10, and 100 ng/mL boron concentrations
[1] = system: human origin cultured cells

Q: Which “Higher resistance to vertebral crushing force” value (axial skeleton) does the source give for `[B]` [boron] here?
A: Its value is 10%.

Q: And the “Bone Morphogenic Proteins (BMPs)-4, -6, and -7” value (pre-osteoblastic cells)?
A: The value was “increases”.

Q: Which “Effect on cell survival” value ([1]; even at reasonably high concentrations) does the source give for `[Co]` [cobalt] here?
A: The value was “negatively affected cell survival”.

Q: Which “Effect on cell survival” value [1] does the source give for cubic boron nitride here?
A: The value was “did not affect cell survival”.
